Patent US20190030036A1, “PHOSPHODIESTERASE INHIBITOR TREATMENT” (Cyrano Therapeutics, Inc., priority 2013, published 2019)

What was measured:
[1] = test system: asthmatic patients; assay: sGaw after inhaled dry powder in asthmatic patients (Examples 5, 6)
Experimental: To test this theory, asthmatic patients are enrolled in a dose escalating single blind study. On arrival to the clinic, subjects are allowed to rest for 20 minutes before baseline measurements of FEV1 (six recordings) and sGaw (five recordings) are made. Subjects receive a dry powder dispenser loaded with a dose of 2 mg theophylline or a dry powder carrier. […] After each inhalation, measurements of sGaw are made at 1, 3, 5, 10, 15, 20, 25, and 30 minutes.
On completion of the last recording, subjects inhale a 200 μg dose of salbutamol from a metered inhaler and a further measurement of sGaw is made after 15 minutes. Subjects are also monitored for coughing and are questioned about the taste of the drug.
Asthmatic patients are enrolled in a dose escalating single blind study. On arrival to the clinic, subjects are allowed to rest for 20 minutes before baseline measurements of FEV1 (six recordings) and sGaw (five recordings) are made. Subjects receive a dry powder dispenser loaded with a dose of 1 mg IBMX formulated as a dry powder or a dry powder carrier. […] After each inhalation, measurements of sGaw are made at 1, 3, 5, 10, 15, 20, 25, and 30 minutes.
On completion of the last recording, subjects inhale a 200 μg dose of salbutamol from a metered inhaler and a further measurement of sGaw made after 15 minutes. Subjects are also be monitored for coughing and are questioned about the taste of the drug.

[2] = test system: patients with hyposmia; assay: Side effects of oral theophylline (Example 1); type: in vivo, human; conditions: oral theophylline 200-800 mg daily in divided doses in middle of meals
Source text: Patients were required to take the drug in divided doses in middle of meals (breakfast and lunch).

[3] = inhaled dry powder 2 mg theophylline

Cn1c(=O)c2[nH]cnc2n(C)c1=O [theophylline]
sGaw above the baseline measurement ([1]; after 30 minutes, inhaled dry powder 2 mg theophylline): 20% | taste and coughing ([1]; dry powder formulation of theophylline vs nebulized liquid): without the unpleasant taste or the induction of coughing | increase in sGaw relative to 200 μg inhaled salbutamol [1, 3]: comparable | time until sGaw baseline is reached [1, 3]: 1 h | Side effects [2]: generally minimal
